Measured values reported in patent US20260344661A1, “USE OF AN ALKYLETHER SULFATE FOR IMPROVING THE EFFICACY OF HERBICIDES” (BASF SE, priority 2022, published 2026).

Legend:
HORVW (winter barley) = test: Greenhouse post-emergence weed control, damage vs untreated (HORVW); format: in vivo, Hordeum vulgare; details: 20 DAT
AVEFA (wild oat) = test: Greenhouse post-emergence weed control, damage vs untreated (AVEFA); format: in vivo, Avena fatua
Method: (§1) A greenhouse study was conducted to evaluate the effect of the alkylether sulfates of formula (I) and other adjuvants on the weed control efficacy of glufosinate. Seedlings of grass plants (AVEFA, ECHCG, DIGSA and SETVI) and broadleaf weeds (KCHSC, CHEAL, AMAPA, AMATA and ABUTH) were grown to a height of 3 to 20 cm, depending on the plant habit in 10×10×10 cm pots filled with sandy planting soil (Limburgerhof soil). The weeds were treated with postemergence applications of glufosinate ammonium at the respective application rates given in the following tables, either alone or combined with various amounts of the respective adjuvants.
(§2) For this, the herbicide formulation and the respective adjuvant were introduced into tap water to obtain the spray liquor. […] The spray liquor was then applied to the plant a spray volume of 200 l/ha using a sprayer (XR Teejet 110015).
(§3) The test period extended over 21 days. During this time, the plants were tended, and their response to the treatments with active compound was evaluated.
(§4) The evaluation for the damage caused by the chemical compositions was carried out using a scale from 0 to 100%, compared to the untreated control plants. Here, 0 means no damage and 100 means complete destruction of the plants.
(§5) The plants used in the greenhouse experiments belonged to the following species:
(§6) The results are summarized in the following tables 1 to 15 that show the applied doses of the individual actives as gram of active ingredient per hectare (g ai/ha), the herbicidal activity of the individual […]

ECHCG (barnyardgrass) = test: Greenhouse post-emergence weed control, damage vs untreated (ECHCG); format: in vivo, Echinochloa crus-galli
Method: as §1, §2, §3, §4, §5, §6

DIGSA (large crabgrass) = test: Greenhouse post-emergence weed control, damage vs untreated (DIGSA); format: in vivo, Digitaria sanguinalis; details: 20 DAT
Method: as §1, §2, §3, §4
(§7) The plants used in the greenhouse experiments belonged to the following species: […]

SETVI (green foxtail) = test: Greenhouse post-emergence weed control, damage vs untreated (SETVI); format: in vivo, Setaria viridis
Method: as §1, §2, §3, §4, §5, §6

[1] = test system: Øgras (average value of AVEFA, ECHCG, DIGSA and SETVI); test: Greenhouse post-emergence weed control, average over grasses (Øgras); format: in vivo
Method: as §1, §2, §3, §4, §5, §6

KCHSC (kochia) = test: Greenhouse post-emergence weed control, damage vs untreated (KCHSC); format: in vivo, Kochia scoparia; details: 20 DAT
Method: as §1, §2, §3, §4, §7

CHEAL (lambsquarter) = test: Greenhouse post-emergence weed control, damage vs untreated (CHEAL); format: in vivo, Chenopodium album
Method: as §1, §2, §3, §4, §5, §6

AMAPA (palmer amaranth) = test: Greenhouse post-emergence weed control, damage vs untreated (AMAPA); format: in vivo, Amaranthus palmeri; details: 20 DAT
Method: as §1, §2, §3, §4, §5
(§8) The results are summarized in the following tables 1 to 15 that show the applied doses of the individual actives as gram of active ingredient per hectare (g ai/ha), the herbicidal activity of the individual actives and of their combinations in post-emergence application assessed 14 and 28 day after treatment (DAT), respectively.

ABUTH (velvetleaf) = test: Greenhouse post-emergence weed control, damage vs untreated (ABUTH); format: in vivo, Abutilon theophrasti; details: 20 DAT
Method: as §1, §2
[…] During this time, the plants were tended, and their response to the treatments with active compound was evaluated.
as §4, §7

[2] = test system: ØBLV (average value of KCHSC, CHEAL, AMAPA, AMATA and ABUTH); test: Greenhouse post-emergence weed control, average over broadleaf weeds (ØBLV); format: in vivo; details: 20 DAT
Method: as §1, §2, §3, §4, §5, §8

HORVS (spring barley) = test: Greenhouse post-emergence weed control, damage vs untreated (HORVS); format: in vivo; details: 20 DAT
AMATU (tall waterhemp) = test: Greenhouse post-emergence weed control, damage vs untreated (AMATU); format: in vivo, Amaranthus tuberculatus; details: 20 DAT
Method: as §1, §2, §3, §4, §5, §8

[3] = test system: ØBLV = Σ % activity (CHEAL + KCHSC + AMATU + ABUTH)/4; test: Greenhouse post-emergence weed control, average over broadleaf weeds (ØBLV, Tables 16-20); format: in vivo; details: average of CHEAL
[4] = 5 g ai/ha L-glufosinate (so in the source), no adjuvant
[5] = 37.5 g ai/ha L-glufosinate, adjuvant g ai/ha: none (CE1-B), 56 (IE2-A), 62.125 (IE2-B), 51.625 (CE2-F)
[6] = 150 g ai/ha L-glufosinate, adjuvant g ai/ha: none (CE1-B), 223 (IE2-A), 248.5 (IE2-B), 206.5 (CE2-F)
[7] = 300 g ai/ha L-glufosinate, adjuvant g ai/ha: none (CE1-B), 446 (IE2-A), 497 (IE2-B), 413 (CE2-F)
[8] = g ai/ha: 42.375 solo (CE1-C), 42.375 + 66.97 combined (IE3-A/B/C, CE2-J)
[9] = g ai/ha: 84.75 solo (CE1-C), 84.75 + 133.94 combined (IE3-A/B/C, CE2-J)
[10] = g ai/ha: 169.5 solo (CE1-C), 169.5 + 267.89 combined (IE3-A/B/C, CE2-J)
[11] = g ai/ha: 339 solo (CE1-C), 339 + 535.77 combined (IE3-A/B/C, CE2-J)

SMILES: CP(=O)(O)CC[C@H](N)C(=O)O.N [CE1-B, ammonium (2S)-2-amino-4-(methylphosphinato)butyric acid]
- % activity (HORVW (winter barley); [4]): 0%
- % activity (HORVW (winter barley); [5]): 5%
- % activity (HORVW (winter barley); [6]): 5%
- % activity (HORVW (winter barley); [7]): 15%
- % activity (AVEFA (wild oat); [4]): 5%
- % activity (AVEFA (wild oat); [5]): 0%
- % activity (AVEFA (wild oat); [6]): 10%
- % activity (AVEFA (wild oat); [7]): 20%
- % activity AVEFA (AVEFA (wild oat); [8]): 3%
- % activity AVEFA (AVEFA (wild oat); [9]): 3%
- % activity AVEFA (AVEFA (wild oat); [10]): 5%
- % activity AVEFA (AVEFA (wild oat); [11]): 8%
- % activity (ECHCG (barnyardgrass); [4]): 0%
- % activity (ECHCG (barnyardgrass); [5]): 0%
- % activity (ECHCG (barnyardgrass); [6]): 20%
- % activity (ECHCG (barnyardgrass); [7]): 60%
- % activity ECHCG (ECHCG (barnyardgrass); [8]): 0%
- % activity ECHCG (ECHCG (barnyardgrass); [9]): 3%
- % activity ECHCG (ECHCG (barnyardgrass); [10]): 3%
- % activity ECHCG (ECHCG (barnyardgrass); [11]): 20%
- % activity (DIGSA (large crabgrass); [4]): 0%
- % activity DIGSA (DIGSA (large crabgrass); [8]): 5%
- % activity DIGSA (DIGSA (large crabgrass); [9]): 15%
- % activity DIGSA (DIGSA (large crabgrass); [10]): 55%
- % activity DIGSA (DIGSA (large crabgrass); [11]): 70%
- % activity (DIGSA (large crabgrass); [5]): 0%
- % activity (DIGSA (large crabgrass); [6]): 30%
- % activity (DIGSA (large crabgrass); [7]): 40%
- % activity (SETVI (green foxtail); [4]): 98%
- % activity (SETVI (green foxtail); [5]): 85%
- % activity (SETVI (green foxtail); [6]): 98%
- % activity (SETVI (green foxtail); [7]): 95%
- % activity (Øgras) [1, 4]: 26%
- % activity (Øgras) [1, 5]: 21%
- % activity (Øgras) [1, 6]: 40%
- % activity (Øgras) [1, 7]: 54%
- % activity (KCHSC (kochia); [4]): 5%
- % activity KCHSC (KCHSC (kochia); [8]): 3%
- % activity KCHSC (KCHSC (kochia); [9]): 3%
- % activity KCHSC (KCHSC (kochia); [10]): 28%
- % activity KCHSC (KCHSC (kochia); [11]): 35%
- % activity (KCHSC (kochia); [5]): 0%
- % activity (KCHSC (kochia); [6]): 5%
- % activity (KCHSC (kochia); [7]): 10%
- % activity (CHEAL (lambsquarter); [4]): 0%
- % activity (CHEAL (lambsquarter); [5]): 0%
- % activity (CHEAL (lambsquarter); [6]): 0%
- % activity (CHEAL (lambsquarter); [7]): 15%
- % activity CHEAL (CHEAL (lambsquarter); [8]): 0%
- % activity CHEAL (CHEAL (lambsquarter); [9]): 0%
- % activity CHEAL (CHEAL (lambsquarter); [10]): 5%
- % activity CHEAL (CHEAL (lambsquarter); [11]): 10%
- % activity (AMAPA (palmer amaranth); [4]): 60%
- % activity (AMAPA (palmer amaranth); [5]): 98%
- % activity (AMAPA (palmer amaranth); [6]): 98%
- % activity (AMAPA (palmer amaranth); [7]): 98%
- % activity (ABUTH (velvetleaf); [4]): 10%
- % activity ABUTH (ABUTH (velvetleaf); [8]): 5%
- % activity ABUTH (ABUTH (velvetleaf); [10]): 30%
- % activity ABUTH (ABUTH (velvetleaf); [11]): 68%
- % activity (ABUTH (velvetleaf); [5]): 10%
- % activity (ABUTH (velvetleaf); [6]): 30%
- % activity (ABUTH (velvetleaf); [7]): 60%
- % activity (ØBLV) [2, 4]: 34%
- % activity (ØBLV) [2, 5]: 26%
- % activity (ØBLV) [2, 6]: 46%
- % activity (ØBLV) [2, 7]: 56%
- % activity HORVS (HORVS (spring barley); [8]): 0%
- % activity HORVS (HORVS (spring barley); [9]): 0%
- % activity HORVS (HORVS (spring barley); [10]): 0%
- % activity HORVS (HORVS (spring barley); [11]): 10%
- % activity AMATU (AMATU (tall waterhemp); [8]): 23%
- % activity AMATU (AMATU (tall waterhemp); [9]): 75%
- % activity AMATU (AMATU (tall waterhemp); [10]): 45%
- % activity AMATU (AMATU (tall waterhemp); [11]): 97%
- % activity (ØBLV) [3, 8]: 8%
- % activity (ØBLV) [3, 9]: 26%
- % activity (ØBLV) [3, 10]: 27%
- % activity (ØBLV) [3, 11]: 53%
